The target in one test is Human mTOR (FLAG-TOR) (Homo sapiens, UniProt P42345). Kind of test: mTOR kinase assay (DELFIA format, purified enzyme). As to conditions: read-out: IC50 mTOR. In kind it is biochemical.
Another test deals with PI3K-α (Homo sapiens, UniProt P42336). As to the kind of experiment: PI3K-alpha fluorescence polarization assay. As to conditions: read-out: IC50 PI3Kα.
A further test deals with PI3K-γ (Homo sapiens, UniProt P48736). As to the kind of experiment: PI3K-gamma fluorescence polarization assay. Conditions: read-out: IC50 PI3Kγ.
PI3K-γ, sequence (P48736 whole entry, species assumed): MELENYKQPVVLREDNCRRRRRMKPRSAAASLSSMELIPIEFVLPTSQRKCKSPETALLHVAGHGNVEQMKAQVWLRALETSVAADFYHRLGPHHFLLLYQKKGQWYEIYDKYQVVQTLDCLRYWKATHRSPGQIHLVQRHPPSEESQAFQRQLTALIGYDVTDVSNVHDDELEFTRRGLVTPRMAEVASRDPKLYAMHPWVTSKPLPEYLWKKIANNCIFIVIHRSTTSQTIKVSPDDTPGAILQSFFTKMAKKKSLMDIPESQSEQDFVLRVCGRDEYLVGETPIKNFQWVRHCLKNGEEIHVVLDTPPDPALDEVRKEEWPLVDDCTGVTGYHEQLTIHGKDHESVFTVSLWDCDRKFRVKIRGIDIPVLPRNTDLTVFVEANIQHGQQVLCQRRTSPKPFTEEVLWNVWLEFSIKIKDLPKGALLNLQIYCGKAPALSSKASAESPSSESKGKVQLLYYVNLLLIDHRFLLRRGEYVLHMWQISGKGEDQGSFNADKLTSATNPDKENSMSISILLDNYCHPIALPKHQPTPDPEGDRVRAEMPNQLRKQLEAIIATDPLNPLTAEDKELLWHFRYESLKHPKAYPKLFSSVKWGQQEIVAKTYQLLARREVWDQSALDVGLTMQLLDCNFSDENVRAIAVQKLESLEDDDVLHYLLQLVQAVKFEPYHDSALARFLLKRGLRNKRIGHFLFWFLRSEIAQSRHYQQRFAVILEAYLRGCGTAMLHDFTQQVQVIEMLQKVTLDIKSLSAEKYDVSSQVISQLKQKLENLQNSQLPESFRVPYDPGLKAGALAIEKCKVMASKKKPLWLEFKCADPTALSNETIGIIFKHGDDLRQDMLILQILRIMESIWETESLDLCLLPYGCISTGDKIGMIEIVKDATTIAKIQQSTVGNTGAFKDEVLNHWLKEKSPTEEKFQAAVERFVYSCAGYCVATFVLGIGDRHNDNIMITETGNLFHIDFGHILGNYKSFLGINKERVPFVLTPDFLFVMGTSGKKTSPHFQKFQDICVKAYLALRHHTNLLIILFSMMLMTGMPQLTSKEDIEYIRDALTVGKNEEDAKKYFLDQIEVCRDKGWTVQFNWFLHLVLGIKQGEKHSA

For 19 compounds, IC50 results are on record in patent US20090304692A1, “TRIAZINE COMPOUNDS AS PI3 KINASE AND MTOR INHIBITORS” (Wyeth, priority 2008, published 2009).

PI3K-α, sequence (P42336 whole entry, species assumed): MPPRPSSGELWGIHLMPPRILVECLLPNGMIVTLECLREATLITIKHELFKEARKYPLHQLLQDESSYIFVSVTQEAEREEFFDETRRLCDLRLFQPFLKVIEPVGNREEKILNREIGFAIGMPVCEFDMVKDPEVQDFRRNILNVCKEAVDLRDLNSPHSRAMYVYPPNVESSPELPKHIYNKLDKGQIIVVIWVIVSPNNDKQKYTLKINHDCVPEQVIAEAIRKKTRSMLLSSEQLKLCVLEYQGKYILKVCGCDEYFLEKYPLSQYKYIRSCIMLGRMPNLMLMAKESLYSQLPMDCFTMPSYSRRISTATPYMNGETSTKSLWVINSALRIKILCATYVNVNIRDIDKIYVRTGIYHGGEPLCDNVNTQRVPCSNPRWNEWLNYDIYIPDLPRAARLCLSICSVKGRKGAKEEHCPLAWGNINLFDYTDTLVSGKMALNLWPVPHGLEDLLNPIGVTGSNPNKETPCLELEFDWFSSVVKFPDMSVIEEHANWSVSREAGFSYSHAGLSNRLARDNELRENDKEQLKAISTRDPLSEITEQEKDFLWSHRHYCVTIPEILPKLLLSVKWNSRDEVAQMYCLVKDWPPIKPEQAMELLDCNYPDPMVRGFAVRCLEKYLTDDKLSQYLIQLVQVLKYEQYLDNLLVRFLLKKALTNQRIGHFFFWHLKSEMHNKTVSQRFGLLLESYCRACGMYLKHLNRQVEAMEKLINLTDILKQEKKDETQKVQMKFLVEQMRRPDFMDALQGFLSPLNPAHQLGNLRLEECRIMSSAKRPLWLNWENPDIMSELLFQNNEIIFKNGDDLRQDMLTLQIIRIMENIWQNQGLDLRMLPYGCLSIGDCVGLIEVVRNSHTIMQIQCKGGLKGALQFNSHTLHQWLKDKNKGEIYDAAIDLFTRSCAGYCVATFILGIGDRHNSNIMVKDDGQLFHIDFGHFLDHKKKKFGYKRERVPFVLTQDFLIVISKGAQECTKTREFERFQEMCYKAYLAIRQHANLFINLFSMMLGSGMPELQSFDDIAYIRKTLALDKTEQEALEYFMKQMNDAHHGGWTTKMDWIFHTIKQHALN
PI3K-α, sequence (P27986 whole entry partner, species assumed): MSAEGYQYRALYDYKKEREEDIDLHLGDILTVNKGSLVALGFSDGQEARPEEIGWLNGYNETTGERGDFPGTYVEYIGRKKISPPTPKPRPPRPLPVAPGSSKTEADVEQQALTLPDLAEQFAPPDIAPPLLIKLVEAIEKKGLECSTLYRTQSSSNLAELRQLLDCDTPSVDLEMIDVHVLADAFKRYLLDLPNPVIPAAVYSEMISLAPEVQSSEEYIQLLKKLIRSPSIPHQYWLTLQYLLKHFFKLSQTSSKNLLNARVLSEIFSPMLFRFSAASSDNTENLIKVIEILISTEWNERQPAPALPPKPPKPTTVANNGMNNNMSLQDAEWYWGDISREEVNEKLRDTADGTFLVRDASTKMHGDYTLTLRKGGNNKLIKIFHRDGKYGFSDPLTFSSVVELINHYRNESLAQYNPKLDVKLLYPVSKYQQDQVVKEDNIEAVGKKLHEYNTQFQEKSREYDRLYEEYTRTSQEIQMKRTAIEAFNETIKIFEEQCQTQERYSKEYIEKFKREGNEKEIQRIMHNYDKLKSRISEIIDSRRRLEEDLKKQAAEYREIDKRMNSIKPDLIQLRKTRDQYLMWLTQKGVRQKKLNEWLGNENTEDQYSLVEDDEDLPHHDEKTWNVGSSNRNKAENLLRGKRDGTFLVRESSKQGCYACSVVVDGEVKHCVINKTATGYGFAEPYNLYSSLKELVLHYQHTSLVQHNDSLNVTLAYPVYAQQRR
Human mTOR (FLAG-TOR), sequence (P42345 1360-2549 limits assumed): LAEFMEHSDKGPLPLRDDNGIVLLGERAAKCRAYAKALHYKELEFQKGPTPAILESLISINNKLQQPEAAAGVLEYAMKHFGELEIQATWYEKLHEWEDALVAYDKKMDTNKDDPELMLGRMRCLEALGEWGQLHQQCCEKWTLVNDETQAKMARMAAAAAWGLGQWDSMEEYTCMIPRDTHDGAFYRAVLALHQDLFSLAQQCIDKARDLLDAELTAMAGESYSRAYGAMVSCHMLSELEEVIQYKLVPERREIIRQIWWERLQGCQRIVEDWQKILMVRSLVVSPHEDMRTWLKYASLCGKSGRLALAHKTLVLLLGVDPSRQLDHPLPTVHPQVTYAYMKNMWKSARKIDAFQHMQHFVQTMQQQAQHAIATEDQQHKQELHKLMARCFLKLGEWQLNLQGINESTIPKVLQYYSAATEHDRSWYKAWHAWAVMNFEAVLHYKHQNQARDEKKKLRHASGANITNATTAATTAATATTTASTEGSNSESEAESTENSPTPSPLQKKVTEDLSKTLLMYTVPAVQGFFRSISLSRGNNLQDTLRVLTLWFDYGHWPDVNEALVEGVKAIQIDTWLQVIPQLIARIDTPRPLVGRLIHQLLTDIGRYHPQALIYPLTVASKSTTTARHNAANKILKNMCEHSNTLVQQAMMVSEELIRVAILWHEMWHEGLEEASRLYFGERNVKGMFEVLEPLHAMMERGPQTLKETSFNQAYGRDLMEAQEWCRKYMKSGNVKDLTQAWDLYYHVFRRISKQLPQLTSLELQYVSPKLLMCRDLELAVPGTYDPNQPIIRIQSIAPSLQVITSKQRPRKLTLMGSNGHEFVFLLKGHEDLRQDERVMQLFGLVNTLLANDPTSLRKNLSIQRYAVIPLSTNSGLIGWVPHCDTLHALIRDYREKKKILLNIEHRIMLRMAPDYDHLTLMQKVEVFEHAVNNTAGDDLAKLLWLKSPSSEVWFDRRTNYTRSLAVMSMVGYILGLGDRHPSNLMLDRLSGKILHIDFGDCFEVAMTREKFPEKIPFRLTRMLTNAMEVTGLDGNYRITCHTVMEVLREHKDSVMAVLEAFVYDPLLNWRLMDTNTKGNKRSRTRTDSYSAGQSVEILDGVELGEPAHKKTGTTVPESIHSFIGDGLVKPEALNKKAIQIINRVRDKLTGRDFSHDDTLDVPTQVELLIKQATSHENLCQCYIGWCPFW

On to `C[C@@H]1COCCN1c1nc(-c2ccc(NC(=O)Nc3ccc(N4CCC(N(C)C)CC4)cc3)cc2)nc(N2CCOC[C@H]2C)n1` [Example 449, 1-(4-(4,6-bis((R)-3-methylmorpholino)-1,3,5-triazin-2-yl)phenyl)-3-(4-(4-(dimethylamino)piperidin-1-yl)phenyl)urea], for which the concentration for half-maximal inhibition (IC50) on Human mTOR (FLAG-TOR) turned out to be 1.9 nM; at PI3K-α, 287 nM; at PI3K-γ, 1640 nM.
For `O=C(Nc1ccncc1)Nc1ccc(-c2nc(N3CCOCC3)nc(N3C4COCC(O)C3C4)n2)cc1` (stereo not drawn) [Example 480, 1-{4-[4-(5-hydroxy-3-oxa-7-azabicyclo[4.1.1]oct-7-yl)-6-morpholin-4-yl-1,3,5-triazin-2-yl]phenyl}-3-pyridin-4-ylurea], in that order: 2.9 nM, 13 nM and 53 nM.
For `O=C(Nc1ccc(-c2nc(N3CCOCC3)nc(N3CCOCC3)n2)cc1)Nc1ccnnc1` [Example 481, 1-[4-(4,6-dimorpholin-4-yl-1,3,5-triazin-2-yl)phenyl]-3-pyridazin-4-ylurea] the same measures were 2.3 nM, 11 nM and 65 nM.
For `O=C(Nc1ccc(-c2nc(N3CCOCC3)nc(N3C4CCC3COC4)n2)cc1)Nc1ccnnc1` [Example 483, 1-{4-[4-morpholin-4-yl-6-(3-oxa-8-azabicyclo[3.2.1]oct-8-yl)-1,3,5-triazin-2-yl]phenyl}-3-pyridazin-4-ylurea] the same measures were 1.55 nM, 28.5 nM and 150 nM.
For `COC(CNc1nc(-c2ccc(NC(=O)Nc3cccnc3)cc2)nc(N2CCOCC2)n1)OC` [Example 488, 1-(4-{4-[(2,2-dimethoxyethyl)amino]-6-morpholin-4-yl-1,3,5-triazin-2-yl}phenyl)-3-pyridin-3-ylurea], the IC50 at Human mTOR (FLAG-TOR) is 3.4 nM; at PI3K-α, 42 nM; at PI3K-γ, 180 nM.
For `CC(C)c1nc(-c2ccc(NC(=O)Nc3ccc(I)cc3)cc2)nc(N2CCOCC2)n1` [Example 490, 1-(4-iodophenyl)-3-{4-[4-(1-methylethyl)-6-morpholin-4-yl-1,3,5-triazin-2-yl]phenyl}urea], in that order: 11.6 nM, 586 nM and 1080 nM.
For `CC(C)c1nc(-c2ccc(NC(=O)Nc3ccc(-c4cnc(N(C)C)nc4)cc3)cc2)nc(N2CCOCC2)n1` [Example 493, 1-{4-[2-(dimethylamino)pyrimidin-5-yl]phenyl}-3-{4-[4-(1-methylethyl)-6-morpholin-4-yl-1,3,5-triazin-2-yl]phenyl}urea], in that order: 32.5 nM, 2920 nM and 1080 nM.
For `COC(=O)c1ccc(NC(=O)Nc2ccc(-c3nc(-c4ccccc4)nc(N4CCOCC4)n3)cc2)cc1` [Example 538, methyl 4-({[4-(4-morpholin-4-yl-6-phenyl-1,3,5-triazin-2-yl)phenyl]carbamoyl}amino)benzoate] the same measures were 0.125 nM, 333 nM and 197 nM.
In the case of `C[C@H]1COCCN1c1nc(-c2ccc(NC(=O)Nc3ccc(C(=O)O)cc3)cc2)nc(N2CCOC[C@@H]2C)n1` [Example 549, 4-{[(4-{4,6-bis[(3S)-3-methylmorpholin-4-yl]-1,3,5-triazin-2-yl}phenyl)carbamoyl]amino}benzoic acid], the IC50 was 26.5 nM on Human mTOR (FLAG-TOR), 724 nM on PI3K-α and 4540 nM at PI3K-γ.
Take `Cc1ccc(-c2nc(-c3ccc(NC(=O)Nc4ccc(C(=O)N5CCCCC5)cc4)cc3)nc(N3CCOCC3)n2)cc1` [Example 555, 1-{4-[4-(4-methylphenyl)-6-morpholin-4-yl-1,3,5-triazin-2-yl]phenyl}-3-[4-(piperidin-1-ylcarbonyl)phenyl]urea]: the IC50 on Human mTOR (FLAG-TOR) is 405 nM; at PI3K-α it was 87.5 nM; on PI3K-γ, 378 nM.
For `COC(=O)c1ccc(NC(=O)Nc2ccc(-c3nc(-c4cccs4)nc(N4CCOCC4)n3)cc2)cc1` [Example 560, methyl 4-[({4-[4-morpholin-4-yl-6-(2-thienyl)-1,3,5-triazin-2-yl]phenyl}carbamoyl)amino]benzoate] the same measures were 100 nM, 269 nM and 504 nM.
For `O=C(Nc1ccc(C(=O)O)cc1)Nc1ccc(-c2nc(N3CCCOCC3)nc(N3CCOCC3)n2)cc1` [Example 569, 4-[({4-[4-morpholin-4-yl-6-(1,4-oxazepan-4-yl)-1,3,5-triazin-2-yl]phenyl}carbamoyl)amino]benzoic acid] the same measures were 8 nM, 74.5 nM and 375 nM.
For `Cc1ccc(-c2nc(-c3ccc(NC(=O)Nc4cccc(C(=O)N5CCN(C)CC5)c4)cc3)nc(N3CCOCC3)n2)cc1` [Example 576, 1-{4-[4-(4-methylphenyl)-6-morpholin-4-yl-1,3,5-triazin-2-yl]phenyl}-3-{3-[(4-methylpiperazin-1-yl)carbonyl]phenyl}urea] the same measures were 140 nM, 761 nM and 2080 nM.
On to `COC(=O)c1cccc(NC(=O)Nc2ccc(-c3nc(-c4ccc(C)cc4)nc(N4CCOCC4)n3)cc2)c1` [Example 578, methyl 3-[({4-[4-(4-methylphenyl)-6-morpholin-4-yl-1,3,5-triazin-2-yl]phenyl}carbamoyl)amino]benzoate], for which the IC50 turned out to be 2100 nM on Human mTOR (FLAG-TOR), 2410 nM at PI3K-α and 2510 nM at PI3K-γ.
For `Cc1ccc(-c2nc(-c3ccc(NC(=O)Nc4cccc(C(=O)N(C)CCN(C)C)c4)cc3)nc(N3CCOCC3)n2)cc1` [Example 580, N-[2-(dimethylamino)ethyl]-N-methyl-3-[({4-[4-(4-methylphenyl)-6-morpholin-4-yl-1,3,5-triazin-2-yl]phenyl}carbamoyl)amino]benzamide], in that order: 100 nM, 465 nM and 1320 nM.
For `CCc1nc(-c2ccc(NC(=O)Nc3cccc(C(=O)OC)c3)cc2)nc(N2CCOCC2)n1` [Example 581, methyl 3-({[4-(4-ethyl-6-morpholin-4-yl-1,3,5-triazin-2-yl)phenyl]carbamoyl}amino)benzoate] the same measures were 37 nM, 114 nM and 461 nM.
For `COC(=O)c1cccc(NC(=O)Nc2ccc(-c3nc(-c4cccs4)nc(N4CCOCC4)n3)cc2)c1` [Example 582, methyl 3-({[4-(4-morpholin-4-yl-6-thiophen-2-yl-1,3,5-triazin-2-yl)phenyl]carbamoyl}amino)benzoate] the same measures were 230 nM, 513 nM and 1090 nM.
Regarding `Cc1ccc(-c2nc(-c3ccc(NC(=O)Nc4cccc(C(=O)NCCN(C)C)c4)cc3)nc(N3CCOCC3)n2)cc1` [Example 583, N-[2-(dimethylamino)ethyl]-3-[({4-[4-(4-methylphenyl)-6-morpholin-4-yl-1,3,5-triazin-2-yl]phenyl}carbamoyl)amino]benzamide], the IC50 turned out to be 48 nM at Human mTOR (FLAG-TOR), 123 nM at PI3K-α and 718 nM on PI3K-γ.
For `CCc1nc(-c2ccc(NC(=O)Nc3cccc(C(=O)O)c3)cc2)nc(N2CCOCC2)n1` [Example 585, 3-({[4-(4-ethyl-6-morpholin-4-yl-1,3,5-triazin-2-yl)phenyl]carbamoyl}amino)benzoic acid], the results for the IC50 at Human mTOR (FLAG-TOR), at PI3K-α and at PI3K-γ were 12 nM, 65 nM and 131 nM, respectively.
